The compounds below were run on paw edema induced by phospholipase A2 from Naja naja venom (assay: Phospholipase A2 rat paw edema). Details: 30 mg/kg ip, 1 hr prior to PLA2, 2 hr, read-out: % Inhib of PLA2 Paw Edema 2 hr 30 mg/kg ip.
Format: in vivo, Lewis rats

SMILES	inhibition in vivo at 30 mg/kg [%]
CCCCCCCCCCCCCCCCCCOc1ccc(C(=O)C(=O)N(CC(=O)O)CC(=O)O)cc1 [Example 65, N-(Carboxymethyl)-N-[2-[4-(octadecyloxy)phenyl]-1,2-dioxoethyl]glycine]	71
CCCCCCCCCCCCCCCCCCOc1cc(OCCCOc2cccc([N+](=O)[O-])c2)cc(C(=O)N(CC(=O)O)CC(=O)O)c1 [Example 22, N-(Carboxymethyl)-N-[3-[3-(3-nitrophenoxy)propoxy]-5-(octadecyloxy)benzoyl]glycine]	64
CCCCCCCCCCCCCCCCCCOc1cccc(C(=O)N(CC(=O)O)CC(=O)O)c1 [Example 4, N-(Carboxymethyl)-N-[3-(octadecyloxy)benzoyl]glycine]	35
CCCCCCCCCCOc1cc(OCCCCCCCCCC)cc(C(=O)N(CC(=O)O)CC(=O)O)c1 [Example 11, N-(Carboxymethyl)-N-[3,5-bis(decyloxy)benzoyl]glycine]	0
CCCCCCCCCCCCCC(=O)Nc1cc(NC(=O)CCCCCCCCCCCCC)cc(C(=O)N(CC(=O)O)CC(=O)O)c1 [Example 56, N-(Carboxymethyl)-N-[3,5-bis(1-oxotetradecylamino)benzoyl]glycine]	57
CCCCCCCCCCOc1cc(OCCCCCCCCCC)cc(C(=O)C(=O)N(CC(=O)O)CC(=O)O)c1 [Example 73, N-(Carboxymethyl)-N-[[3,5-bis(decyloxy)phenyl]-1,2-dioxoethyl]glycine]	32
CCCCCCCCCCCCCCCCCCOc1cc(OCCCOc2cccc(N)c2)cc(C(=O)N(CC(=O)O)CC(=O)O)c1 [Example 23, N-(Carboxymethyl)-N-[3-[3-(3-aminophenoxy)propoxy]-5-(octadecyloxy)benzoyl]glycine]	40
CCCCCCCCCCCCCCCCCCOc1ccc(O)c(C(=O)N(CC(=O)O)CC(=O)O)c1 [Example 62, N-(carboxymethyl)-N-[2-hydroxy-5-(octadecyloxy)benzoyl]glycine]	60
CCCCCCCCCCCCCCCCCCOc1cc(OCCOCCOCCOCC)cc(C(=O)N(CC(=O)O)CC(=O)O)c1 [Example 48, N-(carboxymethyl)-N-[3-[2-[2-(2-ethoxyethoxy)ethoxy]ethoxy]-(5-octadecyloxy)benzoyl]glycine]	43
